# Source: patent publication US9254292B2, “Fused tetracycle derivatives and methods of use thereof for the treatment of viral diseases” (Merck Sharp & Dohme Corp., priority 2010, dated 2016)
# Assays:
# [1] = test system: HCV replicon 1a WT; assay: Cell-based HCV replicon assay, genotype 1a WT; parameters: species or system Hepatitis C virus; conditions: replicon cells, day 3, replicon RNA by real time PCR (Taqman)
# Protocol: (§1) To measure cell-based anti-HCV activity of selected compounds of the present invention, replicon cells were seeded at 5000 cells/well in 96-well collagen I-coated Nunc plates in the presence of the test compound. Various concentrations of test compound, typically in 10 serial 2-fold dilutions, were added to the assay mixture, with the starting concentration ranging from 250 μM to 1 μM. The final concentration of DMSO was 0.5%, fetal bovine serum was 5%, in the assay media. Cells were harvested on day 3 by the addition of 1× cell lysis buffer (Ambion cat #8721). The replicon RNA level was measured using real time PCR (Taqman assay). The amplicon was located in 5B. The PCR primers were: 5B.2F, ATGGACAGGCGCCCTGA (SEQ ID NO. 1); 5B.2R, […] (SEQ ID NO. 2); the probe sequence was FAM-labeled CACGCCATGCGCTGCGG (SEQ ID NO. 3). GAPDH RNA was used as endogenous control and was amplified in the same reaction as NS5B (multiplex PCR) using primers and VIC-labeled probe recommended by the manufacturer (PE Applied Biosystem). The real-time RT-PCR reactions were run on ABI PRISM 7900HT Sequence Detection System using the following program: 48° C. for 30 minutes, 95° C. for 10 minutes, 40 cycles of 95° C. for 15 sec, 60° C. for 1 minutes The ΔCT values (CT5B-CTGAPDH) were plotted against the concentration of test compound and fitted to the sigmoid dose-response model using XLfit4 (MDL). EC50 was defined as the concentration of inhibitor necessary to achieve ΔCT=1 over the projected baseline; EC90 the concentration necessary to achieve ΔCT=3.2 over the baseline. Alternatively, to quantitate the absolute amount of replicon RNA, a standard curve was established by including serially diluted T7 transcripts of replicon RNA in the Taqman assay. All Taqman reagents were from PE Applied Biosystems. Such an assay procedure was described in detail in e.g. Malcolm et al., Antimicrobial Agents and Chemotherapy 50: 1013-1020 (2006).
# (§2) HCV replicon assay data was calculated for selected compounds of the present invention using this method and is provided in the table below.
# [2] = test system: HCV replicon 1b WT; assay: Cell-based HCV replicon assay, genotype 1b WT; parameters: species or system Hepatitis C virus; conditions: replicon cells, day 3, replicon RNA by real time PCR (Taqman)
# Protocol: as §1, §2
# [3] = test system: HCV replicon 1a Y93H; assay: Cell-based HCV replicon assay, genotype 1a Y93H mutant; conditions: Hepatitis C virus, 72 h, read-out: Replicon EC50 1a Y93H
# Protocol: To measure cell-based anti-HCV activity of selected compounds of the present invention, replicon cells were seeded at 5000 cells/well in 96-well collagen I-coated Nunc plates in the presence of the test compound. Various concentrations of test compound, typically in 10 serial 2-fold dilutions, were added to the assay mixture, with the starting concentration ranging from 250 μM to 1 μM. The final concentration of DMSO was 0.5%, fetal bovine serum was 5%, in the assay media. Cells were harvested on day 3 by the addition of 1× cell lysis buffer (Ambion cat #8721). The replicon RNA level was measured using real time PCR (Taqman assay). The amplicon was located in 5B. The PCR primers were: 5B.2F, ATGGACAGGCGCCCTGA (SEQ ID NO. 1); 5B.2R, […] (SEQ ID NO. 2); the probe sequence was FAM-labeled CACGCCATGCGCTGCGG (SEQ ID NO. 3). GAPDH RNA was used as endogenous control and was amplified in the same reaction as NS5B (multiplex PCR) using primers and VIC-labeled probe recommended by the manufacturer (PE Applied Biosystem). […] Alternatively, to quantitate the absolute amount of replicon RNA, a standard curve was established by including serially diluted T7 transcripts of replicon RNA in the Taqman assay. […]
# as §2
Compound,"EC50 ([1]; Hepatitis C virus, 72 h)","EC50 ([2]; Hepatitis C virus, 72 h)",EC50 [3],EC50 [1],EC50 [2]
COC(=O)NC(C(=O)N1CCC[C@H]1c1ncc(-c2ccc3c(c2)cc2n3CCOc3cc(-c4cnc(C5CCCN5C(=O)[C@@H](NC(=O)OC)C(C)C)[nH]4)ccc3-2)[nH]1)C(C)C (some centres unmarked) [Compound 7],0.01 nM,0.003 nM,565 nM,,
COC(=O)NC(C(=O)N1CCC[C@H]1c1ncc(-c2ccc3c(c2)c(F)c2n3CCOc3cc(-c4cnc(C5CCCN5C(=O)[C@@H](NC(=O)OC)C(C)C)[nH]4)ccc3-2)[nH]1)C(C)C (some centres unmarked) [Compound 9],,,,1.18 nM,0.27 nM
COC(=O)NC(C(=O)N1CCC[C@@H]1c1ncc(-c2ccc3c(c2)c(F)c2n3CCOc3cc(-c4cnc(C5CCCN5C(=O)[C@@H](NC(=O)OC)C(C)C)[nH]4)ccc3-2)[nH]1)C(C)C (some centres unmarked) [Compound 10],,,,2 nM,0.7 nM
COC(=O)NC(C(=O)N1CCC[C@H]1c1ncc(-c2ccc3c(c2)c(F)c2n3CCOc3cc(-c4cnc(C5CCCN5C(=O)[C@@H](NC(=O)OC)C(C)C)[nH]4)ccc3-2)[nH]1)C(C)C (some centres unmarked) [Compound 8],,,,0.016 nM,0.007 nM
COC(=O)NC(C(=O)N1CCC[C@@H]1c1ncc(-c2ccc3c(c2)c(F)c2n3CCOc3cc(-c4cnc(C5CCCN5C(=O)[C@@H](NC(=O)OC)C(C)C)[nH]4)ccc3-2)[nH]1)C(C)C (some centres unmarked) [Compound 11],,,,0.01 nM,0.005 nM
COC(=O)N[C@H](C(=O)N1CCC[C@H]1c1ncc(-c2ccc3c(c2)OCCc2c-3oc3ccc(-c4cnc([C@@H]5CCCN5C(=O)[C@@H](NC(=O)OC)C(C)C)[nH]4)cc23)[nH]1)C(C)C [Compound 5],0.015 nM,0.001 nM,186 nM,,
